Measured values as given in patent US20230301299A1, “DISINFECTING FORMULATIONS WITH CARVACROL” (priority 2022, published 2023).

Columns and labels:
Staphylococcus aureus [1] = assay: minimum inhibitory concentration test (normalized T0, growth after neutralisation); assay type: cell-based; settings: for inhibitory effect (normalized T0, lower = increased inhibitory effect): FIG. 1, 0.5% essential oil compound, 5 minute contact time, 24 hour growth
Description: Various essential oil compounds were evaluated in a minimum inhibitory concentration test (e.g., against Staphylococcus aureus), to evaluate the inhibiting characteristics of the various tested compounds. […] Each candidate essential oil compound active was tested at 0.5% concentration, with 1% sodium lauryl sulfate (SLS), with a 5 minute contact time. As those of skill in the art will appreciate, the testing was conducted following EPA microbiology efficacy protocols, where the candidate active to be tested is applied to an inoculum (e.g., Staphylococcus aureus), and after a given contact time (e.g., 5 minutes), the active being tested is neutralized (e.g., with growth media), and the treated inoculum is allowed to grow out over a period of 24 hours. After the 24 hour growth period, an automated plate reader is used to measure inoculum growth, and the results are tabulated, relative to a control standard, which was not contacted with any active. Such testing therefore allows determination of which candidate actives provide for an inhibitory effect relative to a target microbe, as well as information relative to which candidate actives may be better than others.
Based on the results seen in FIG. 1, carvacrol was identified as a good candidate for further study. […] All tested samples included 1% SLS, with 0.5% of the shown co-surfactant, and 0.2% of the shown essential oil compound, with the results averaged over 3 contact times of 5, 15, and 30 minutes. […] For example, the amine oxide, sophorolipid, alkylpolyglycoside, and alcohol ethoxylate show such results, particularly in combination with carvacrol. For this reason, such surfactants may be avoided, in at least some embodiments of the present invention.
All tested samples included 1.5% SLS as the primary surfactant, with 1% of the shown essential oil compound, and 1% of the tested co-surfactant.
In particular, FIG. 5 plots change in T0 (ΔT0) compared to carvacrol as used alone (i.e. with no secondary essential oil compound).

Staphylococcus aureus [2] = assay: log reduction, EPA germicidal spray test (GST) / OECD quantitative method; assay type: cell-based; settings: FIG. 7; 1% SLS, 0.5% second alkyl sulfate, 0.4% silicate buffer, 0.25% chelating agent, carvacrol 0.2% up to 1%; 3 and 5 minute contact times
Description: Tests were performed under standards promulgated by the EPA (e.g., the EPA's germicidal spray test “GST”) and the OECD (e.g., the Organization for Economic Co-Operation and Development). The OECD standards include an evaluation of the tested compositions ability to work in an environment where the target surface being cleaned includes soiling. The GST test is carried out according to the EPA's Standard Operating Procedure for Germicidal Spray Products as Disinfectants (GSPT): Testing of Staphylococcus aureus, Pseudomonas aeruginosa, and Salmonella enterica, published under SOP MB-06-09, which is herein incorporated by reference in its entirety. Such is available at https://www.epa.gov/sites/default/files/2018-01/documents/mb-06-09,pdf. The OECD test is carried out according to the EPA's Standard Operating Procedure for OECD Quantitative Method for Evaluating Bactericidal and Mycobactericidal Activity of Microbicides Used on Hard, Non-Porous Surfaces, published under SOP MB-25-05, which is herein incorporated by reference in its entirety. Such is available at https://www.epa.gov/sites/default/files/2019-05/documents/mb-25-05.pdf.

[3] = FIG. 2, 1% SLS, 0.5% co-surfactant, 0.2% essential oil compound, averaged over contact times of 5, 15 and 30 minutes

Compound | inhibitory effect (normalized T0) (Staphylococcus aureus [1]; [3]) | inhibitory effect (normalized T0, lower = increased inhibitory effect) (Staphylococcus aureus [1]; 1% SLS) | inhibitory effect (normalized T0) (Staphylococcus aureus [1]; FIG. 3, 1.5% SLS, 1% essential oil compound, 1% co-surfactant) | log reduction against Staphylococcus aureus (Staphylococcus aureus [2])
alcohol ethoxylate | opposite of an inhibitory effect |  |  | 
Cc1ccc(C(C)C)c(O)c1 [thymol, reference compound] |  | some inhibitory effect |  | 
alkylpolyglycoside | opposite of an inhibitory effect |  |  | 
Cc1ccc(C(C)C)cc1O [carvacrol] |  | best inhibitory effect | lowest T0 values | increased log reduction with increasing carvacrol concentration
sophorolipid | opposite of an inhibitory effect |  |  | 
